Read-outs that look alike come from different tables or passages of the source.

Experiment [1] addresses AMPA binding site. In words: AMPA binding assay (T. Honore et al., Neuroscience Letters 54, 27-32 (1985)).
For experiment [2], the system named is AMPA-induced clonic seizures in NMRI mice. Description: AMPA-induced clonic seizures (AMPA seizure test). Format: in vivo. The note with it: Mus musculus, female NMRI mice, dose inhibiting 50% of the mice from having clonic seizures. On the procedure:
AMPA given icv (intracerebroventricular) (15 μg/kg) NMRI to mice induces clonic seizures which should be inhibited by non-NMDA receptor antagonists.
Test compound was given i.v. 5 min (or p.o. 30 min) before a 0.3 μg icv administration of AMPA to 10 female NMRI mice (weighing 24-26 g) per dose. The number of mice experiencing clonic seizures within the next 5 min was noted. An ED50 value was calculated as the dose inhibiting 50% of the mice from having clonic seizures.

Take `CN(C)S(=O)(=O)c1cc2c(c3c1CCCC3)NC(=O)C2=NO` [5-N,N-dimethylsulfamoyl-1H-6,7,8,9-tetrahydrobenz[g]indole-2,3-dione-3-oxime]: the IC50 – broadly, the concentration that inhibits the measured activity by half – in experiment [1] was determined as 2 µM. The ED50 (commonly the dose that gives a 50% effect, or the effect in half of the subjects) in experiment [2] (iv, 5 min, administered i.v. 5 min before 0.3 μg icv AMPA, read-out: ED50 in the AMPA seizure test, i.v.) turned out to be 3 mg/kg; in experiment [2] (po, 0.5 h, administered orally (p.o.) 30 min before 0.3 μg icv AMPA, read-out: ED50 in the AMPA seizure test, orally) it was 30 mg/kg.

For the origin of these results see patent US5223527A, “Isatineoxime derivatives and their use” (NeuroSearch A/S, priority 1992, dated 1993).
